According to US20250381216A1, “PROPHYLACTIC DRUG AND THERAPEUTIC DRUG FOR DIABETES-ASSOCIATED DEMENTIA” (priority 2022, published 2025):

Key:
[1] = test system: diabetes-associated dementia model (STZ injected into the cerebral ventricles of mice); test: Morris water maze probe test (spatial memory) in mice given streptozotocin intracerebroventricularly; assay type: in vivo, C57BL/6 mice; conditions: for Residence time in the quadrant where the platform was previously located: mean ± SE
Description: (§1) Male C57BL/6 mice (20-22 g), 6 weeks old, were purchased from Japan SLC, Inc., and acclimated for one week. All mice (3-5 mice per cage) were maintained under specific pathogen-free conditions with a 12-hour light/dark cycle in a temperature and humidity-controlled room, with free access to food and water. Mouse diet (D12450B) was purchased from Research Diets, Inc. After the experiment, mice were anesthetized with 4% isoflurane vapor using a simple inhalation anesthesia device (NARCOBIT-E, Natsume Seisakusho Co., Ltd.) and euthanized by cardiac puncture for whole blood collection.
(§2) LPS (Pantoea agglomerans LPS mac0001, Macrophi Inc.), prepared and purified according to the fermentation culture method (PTL 2) developed by Soma et al., was used. LPS was administered orally by dissolving LPS in drinking water (sterilized distilled water) at a dose of 1 mg/kg body weight/day. The LPS dosage was based on previous studies (NPL 8, 9). Drinking water was replaced weekly, and LPS concentration was adjusted according to average body weight and water intake. The LPS used is a substance present in the environment, consumed to some extent in daily life, and has also been added to food and cosmetics. LPS, when orally fed, enhances the functionality of phagocytes (macrophages) in the peritoneal cavity and brain (NPL 8, 9). Activated phagocytes have the function of repairing damaged tissues in the body. LPS may be derived from plant symbiotic bacteria with food experience, such as Pantoea, Enterobacter, Xanthomonas, Acetobacteraceae, and Zymomonas, but the specific strain is not limited as long as it is LPS.
We used a method of directly administering STZ into the cerebral ventricles as a model of the diabetes-associated dementia that causes spatial memory deterioration without increasing blood glucose levels (NPL 7). STZ was purchased from Sigma-Aldrich Co. LLC. […] After surgery, mice were monitored daily for pain/discomfort and infection according to guidelines. […]

[2] = test system: diabetes-associated dementia model (STZ injected into the cerebral ventricles of mice); test: Morris water maze training test (spatial learning) in mice given streptozotocin intracerebroventricularly; assay type: in vivo, C57BL/6 mice
Description: as §1, §2
We used a method of directly administering STZ into the cerebral ventricles as a model of the diabetes-associated dementia that causes spatial memory deterioration without increasing blood glucose levels (NPL 7). STZ was purchased from Sigma-Aldrich Co. LLC. After anesthetizing with 4% isoflurane using a stereotaxic apparatus SR-5M-HT (Narishige Co., Ltd.), STZ (2.0 mg/mouse, dissolved in 5 μl saline) was injected singly into the right lateral ventricle using a microinjector IMS-20 and micromanipulator SMM-100 (Narishige Co., Ltd.). The stereotaxic coordinates were +0.3 mm anterior, +1.0 mm lateral (right), and +2.5 mm ventral from the intersection of the sagittal and coronal sutures. After suturing the skin, an appropriate amount of antibiotic ointment (20 mg/g chloramphenicol, 5 mg/g fradiomycin, 100,000 U/g nystatin, Daiichi Sankyo Healthcare Co., Ltd.) was applied to the wound. For non-STZ control mice, 5 μl of saline was injected into the right lateral ventricle. After surgery, mice were monitored daily for pain/discomfort and infection according to guidelines. 5 μL of 5% trypan blue (Nacalai Tesque, Inc.) was administered intracerebroventricularly to confirm proper needle placement.
For the prevention experiment of LPS oral administration against the diabetes-associated dementia, mice were given free access to LPS in drinking water (1 mg/kg body weight/day for 33 days until the end of the test) from one week before STZ administration until the end of the experiment. Cognitive assessment tests (Morris water maze test) were conducted 3 weeks after STZ administration (4 weeks after starting LPS oral intake). 17-19 mice were used for each group.
For the treatment experiment of LPS oral administration against the diabetes-associated dementia, cognitive assessment tests (Morris water maze test) were conducted 12 days after STZ administration to confirm cognitive function decline. From 20 days after STZ administration, mice were given free access to LPS in drinking water (1 mg/kg body weight/day for 25 days until the end of the test). Cognitive assessment tests (Morris water maze test) were conducted 40 days after STZ administration (day 20 of LPS oral intake).
The Morris water maze test consists of tests evaluating spatial learning ability (training test) and spatial memory ability (probe test). […]

[3] = training test starting 12 days after icv STZ 2.0 mg/mouse, before LPS treatment, mean ± SE
[4] = treatment experiment, training test starting 40 days after icv STZ, LPS 1 mg/kg body weight/day in drinking water from day 20 after STZ

CN(N=O)C(=O)N[C@H]1C(O)O[C@H](CO)[C@@H](O)[C@@H]1O (mixture of isomers) [STZ, streptozotocin]
Spatial memory ability (residence time in the target quadrant, FIG. 2) ([1]; prevention experiment, LPS 1 mg/kg body weight/day in drinking water from one week before icv STZ, probe test the day after training): significantly shorter residence time in the target quadrant compared to the Saline group
Residence time in the quadrant where the platform was previously located ([1]; probe test 16 days after icv STZ 2.0 mg/mouse, before LPS treatment, 60-second test): 18.0 ± 2.83 s
Residence time in the quadrant where the platform was previously located ([1]; treatment experiment, probe test 44 days after icv STZ, LPS 1 mg/kg body weight/day in drinking water from day 20 after STZ): 24.1 ± 8.73 s
Spatial learning ability (platform travel time over 4 days of training, FIG. 1) ([2]; prevention experiment, LPS 1 mg/kg body weight/day in drinking water from one week before icv STZ, test three weeks after STZ): inhibited reduction in platform travel time compared to the Saline group
Travel time (time required to reach the platform), training day 1 [2, 3]: 55.1 ± 2.14 s
Travel time (time required to reach the platform), training day 2 [2, 3]: 43.8 ± 7.00 s
Travel time (time required to reach the platform), training day 3 [2, 3]: 40.4 ± 7.09 s
Travel time (time required to reach the platform), training day 4 [2, 3]: 33.3 ± 6.74 s
Travel time (time required to reach the platform), training day 1 [2, 4]: 44.42 ± 3.81 s
Travel time (time required to reach the platform), training day 2 [2, 4]: 37.25 ± 10.41 s
Travel time (time required to reach the platform), training day 3 [2, 4]: 27.83 ± 7.71 s
Travel time (time required to reach the platform), training day 4 [2, 4]: 35.75 ± 10.44 s
